Read-outs that look alike come from different tables or passages of the source.
How the values were obtained:
[1] = ethanol in silicone rubber capsule, Schmidt et al.; cited from earlier work
[2] = Solubility and stability of BCNU in vehicles (statements); format: physicochemical
[3] = cited from earlier work
Brown-Pearce epithelioma = experiment: Histopathological observations of enucleated rabbit eyes with Brown-Pearce epithelioma; format: in vivo, New Zealand female albino rabbits
Text: Preoperative examination of 28 eyes in 14 New Zealand femal albino rabbits weighing 2.0 to 2.5 kg included biomicroscopy, tonotometry, and indirect ophthalmoscopy. All animals had normal eyes. Both eyes of each animal were inoculated intracamerally with Brown-Pearce epithelioma tissue by the technique at 993 of Liu et al., Invest. Ophthalmol Visual Sci., Vol. 17 (1978).
Three days after tumor tissue implantation, a silicone device described in Example 1 was implanted episclerally in each eye. Animals were anesthetized with sodium pentobarbital 24 mg/kg body weight administered intravenously. After routine preparation of the rabbit and the eyes, a pocket beneath the conjunctiva and Tenon's capsule was made in the upper temporal quadrant of the eye. The silicone device was inserted into the pocket but the small tube remained accessible to permit injection of test substance. Two 7-0 silk sutures were applied on both shoulders of the silicone device and on the episcleral tissue at the pars plana to hold the device in position. The conjunctiva was closed with two 7-0 silk sutures. Then 0.15 ml of the BCNU solution or the diluent (control) was injected into the device with a tuberculin syringe and a 30-gauge needle through the tube which was outside the closed conjunctiva as shown in FIG. 5. The injecting tube was fixed on the upper fornix.
Seven animals (Group 1A) received 3.0 mg of BCNU in 0.15 ml of sesame oil in one eye on the third, sixth, and ninth days after tumor implantation (total dose 9.0 mg). Three animals (Group 1B) received 12.0 mg of BCNU in 0.15 ml of sesame oil on the same schedule (total dose 36.0/mg). Four animals (Group II) received 13.0 mg of BCNU in pure ethanol on the third and sixth days after tumor implantation (total dose 26.0 mg). The fellow eyes served as controls and received diluent only.
Ocular examinations were made on alternate days during the 20 days following tumor implantation; at that time all eyes were enucleated. The effectiveness of treatment was measured by (1) comparing the extent of tumor growth in the anterior chamber of treated and control eyes, (2) noting the occurrence of distortion and perforation of the globe due to tumor growth, (3) weighing all eyes following enucleation, and (4) comparing the histopathologic changes in the eyes.
The enucleated eyes were fixed in 10% buffered formalin in preparation for histopathological examination. A sagittal section on either side of the optic nerve was made. Pupil-optic nerve sections and the two calottes were processed routinely for histologic evaluation, using hematoxyline and eosin (H&E) stain. The eyes were imbedded in paraffin and cut in sections 6μ thick for light microscopy. Every fifth section was stained. About 50 sections from each eye were examined.

[4] = Release of BCNU from silicone balloons into water; format: physicochemical
Procedure: Into one balloon prepared as in Example 1 was injected 0.15 ml. of 1% ethanol containing 0.6 mg. of BCNU and into a second balloon 0.15 ml. of 10% ethanol containing 0.5 mg of BCNU.
Each balloon was placed in a scintillation vial containing 5 ml of water and shaken at 37° C. in an automatic shaker. At specified time intervals, the aqueous liquid was removed from the vials containing the balloons. The amount of BCNU dissolved in the water was determined by spectroscopic analysis (absorbance at 232 nm). The water in each scintillation vessel was replaced with 5 ml. of fresh water. […] Results for both ethanolic solutions were as in FIG. 2. (- - -).
BCNU (7.5 mg/0.15 ml sesame oil) was injected into a silicone balloon which was placed in a flask with 5 ml of distilled water and shaken in an automatic shaker at 37° C. The procedure of Example 3(a) was repeated for as many time as positive absorption at 232 nm was recorded. When the experiment had to be interrupted overnight, the dried silicone balloon containing BCNU in sesame oil was stored at -15° C.
BCNU in absolute ethanol solution (13 mg/0.15 ml, 20 mg/0.15 ml, and 60 mg/0.15 ml) was injected in each of three silicone balloons. Release of BCNU from the balloon was followed as in Example 3. Results of this experiment are shown in FIG. 3, in which (--. --. --.) represents data for the solution containing 13 mg of BCNU, (- - -) the solution containing 20 mg and (--) the solution containing 60 mg. A sharp drop in the BCNU release rate after 3-4 hours, indicated by the arrow in the Figure, is correlated with diffusion of all of the ETOH from the balloons.

O=NN(CCCl)C(=O)NCCCl [BCNU, 1,3-bis-(2-chloroethyl)-1-nitrosourea]
decrease in BCNU concentration in the dialysate [1]: rapid decrease in BCNU concentration in the dialysate | solubility in absolute ethanol ([2]; absolute ethanol as solvent for BCNU): excellent solvent for BCNU | solubility in sesame oil ([2]; sesame oil): fairly soluble | stability in sesame oil ([2]; sesame oil): relatively stable | reported half-life of BCNU in water ([3]; Montgomery et al., J. Med. Chem. 1967): 5.08 h | reported half-life of BCNU in water ([3]; Schmidt et al., supra): 2.33 h | Decomposition of BCNU in water ([3]; in water, of the order of): 140 to 305 min | infiltration and extrascleral extension, histology (Brown-Pearce epithelioma; Group I, BCNU in sesame oil): The inner scleral and corneal lamellae were infiltrated with tumor; no extrascleral extension was noted | mitotic index (Brown-Pearce epithelioma; Group I, BCNU in sesame oil): remained high | necrosis (Brown-Pearce epithelioma; Group I, BCNU in sesame oil): necrosis was prominent | tumor extent, histology (Brown-Pearce epithelioma; Group I, BCNU in sesame oil): Tumor growth tended to be limited to the anterior segment, but in some instances replaced the iris and ciliary body | intraocular architecture and invasion of the cornea or sclera (Brown-Pearce epithelioma; Group II, BCNU in pure ethanol): Normal intraocular architecture was maintained, with no evidence of invasion of the cornea or sclera | mitotic index (Brown-Pearce epithelioma; Group II, BCNU in pure ethanol): 6 to 8 per high power field | necrosis versus control eyes (Brown-Pearce epithelioma; Group II, BCNU in pure ethanol): less prominent than in control eyes | reduction of tumor growth, histology (Brown-Pearce epithelioma; Group II, BCNU in pure ethanol): most significant reduction of tumor growth | tumor extent, histology (Brown-Pearce epithelioma; Group II, BCNU in pure ethanol): Only small foci of tumor, limited to the anterior segment | tumor nodules in iris and ciliary body, histology (Brown-Pearce epithelioma; Group II, BCNU in pure ethanol): small nodules of tumor were found in the iris stroma and iris root with occasional involvement of the ciliary body | histological difference between Group IA and Group IB eyes (Brown-Pearce epithelioma; total 9.0 mg versus total 36.0 mg BCNU in sesame oil): no observable difference histologically | rate of BCNU release from silicone balloons into water ([4]; 1% or 10% ethanol, 37° C.): rapidly decreasing rate | BCNU release rate after alcohol depletion, comparison of the three balloons ([4]; 13, 20 and 60 mg/0.15 ml absolute ethanol): about the same for the three balloons | depletion of BCNU from silicone microballoons ([4]; BCNU in sesame oil): depleted rather rapidly | rate of BCNU release from silicone microballoons into water ([4]; BCNU in sesame oil, 37° C.): variable rate | BCNU remaining inside balloons after alcohol depletion ([4]; absolute ethanol): essentially pure BCNU remained inside the balloons | time of sharp drop in the BCNU release rate ([4]; absolute ethanol, 13, 20 and 60 mg/0.15 ml, 37° C.): 3 to 4 h | rate of BCNU diffusion from balloon into water after alcohol depletion ([4]; absolute ethanol, after the alcohol has left): relatively constant rate | duration of BCNU release ([4]; balloon containing the largest amount (60 mg/0.15 ml absolute ethanol)): released it over the longest time

Source: patent US4300557A, “Method for treating intraocular malignancies” (The United States of America as represented by the …, priority 1980, dated 1981)
